Measured values reported in US5997871A (priority 1996, dated 1999).

Key:
KS Y-1 or KS-SLK cells = test: KS clonogenic assay in methylcellulose; type: cell-based, human
Experimental: Briefly, the KS Y-1 cells were obtained from mononuclear cells isolated from pleural effusion of an AIDS patient with KS involving the lungs. After the depletion of T lymphocytes, monocytes/macrophages and fibroblasts by the cytotoxicity method, using monoclonal antibodies against CD2, CD3, CD4, CD8, CD10 and CD14 membrane antigens and baby rabbit complement, the cells were cultured in the absence of exogenous growth factors to select for transformed cells.

KS Y-1 induced tumors = test: KS Y-1 tumors induced in immunodeficient mice; settings: compared to β-hCG peptides 45-57 and 109-119
KS tumors and cells = test: Overall anti-KS activity of hCG preparations and peptides in vitro and in vivo; settings: for anti-KS effects: in vitro and in vivo animal model data
HIV = HIV assays (anti-viral effects)

β-hCG peptide 74-95: β-hCG peptide of amino acids 74-95 (RGVNPVVSYAVALSCQCALCRR; UniProt P0DN86 94-115, looked up, fragment)
inhibition in clonogenic assays (KS Y-1 or KS-SLK cells): little or no inhibition | anti-KS activity of other peptides (KS Y-1 induced tumors): inactive

β-hCG peptide 6-40: β-hCG peptide 6-40, forms part of the β-core (RPRCRPINATLAVEKEGCPVCITVNTTICAGYCPT; UniProt P0DN86 26-60, looked up, fragment)
anti-KS activity of other peptides (KS Y-1 induced tumors): slight activity

β-hCG peptide 34-49: β-hCG peptide of amino acids 34-49 (CAGYCPTMTRVLQGVL; UniProt P0DN86 54-69, looked up, fragment)
inhibition in clonogenic assays (KS Y-1 or KS-SLK cells): little or no inhibition | anti-KS activity of other peptides (KS Y-1 induced tumors): inactive

β-hCG peptide 38-57: β-hCG peptide of amino acids 38-57, overlaps satellin A1 (CPTMTRVLQGVLPALPQVVC; UniProt P0DN86 58-77, looked up, fragment)
inhibition in clonogenic assays (KS Y-1 or KS-SLK cells): little or no inhibition | anti-KS activity of other peptides (KS Y-1 induced tumors): slight activity

β-hCG peptide 57-93: β-hCG peptide of amino acids 57-93 (CNYRDVRFESIRLPGCPRGVNPVVSYAVALSCQCALC; UniProt P0DN86 77-113, looked up, fragment)
inhibition in clonogenic assays (KS Y-1 or KS-SLK cells): little or no inhibition | anti-KS activity of other peptides (KS Y-1 induced tumors): inactive

β-hCG peptide 109-119: synthetic peptide of amino acid numbers 109-119 of the beta subunit of hCG (TCDDPRFQDSS)
anti-tumor (anti-KS) effects in clonogenic assays (KS Y-1 or KS-SLK cells; 50 nmoles/ml, 2 KS neoplastic cell lines, 10 days): strongest anti-tumor effects | activities of native hCG preparations (anti-KS, anti-viral, pro-hematopoietic) mimicked or retained (KS tumors and cells): mimicked | anti-KS effects (KS tumors and cells): have anti-KS effects | anti-viral effects (HIV): strongest anti-viral effects

β-hCG peptide 7-40: β-hCG peptide of amino acids 7-40 (PRCRPINATLAVEKEGCPVCITVNTTICAGYCPT; UniProt P0DN86 27-60, looked up, fragment)
inhibition in clonogenic assays (KS Y-1 or KS-SLK cells): little or no inhibition

β-hCG peptide 55-90: β-hCG peptide 55-90, forms part of the β-core (VVCNYRDVRFESIRLPGCPRGVNPVVSYAVALSCQC; UniProt P0DN86 75-110, looked up, fragment)
anti-KS activity of other peptides (KS Y-1 induced tumors): slight activity

α-hCG peptide 88-92: α-hCG peptide of amino acids 88-92 (YYHKS; UniProt P01215 112-116, looked up, fragment)
inhibition in clonogenic assays (KS Y-1 or KS-SLK cells): little or no inhibition | anti-KS activity of other peptides (KS Y-1 induced tumors): inactive

β-hCG peptide 93-100: β-hCG peptide of amino acids 93-100 (CRRSTTDC; UniProt P0DN86 113-120, looked up, fragment)
anti-KS activity of other peptides (KS Y-1 induced tumors): inactive

β-hCG peptide 100-110: β-hCG peptide of amino acids 100-110 (CGGPKDHPLTC; UniProt P0DN86 120-130, looked up, fragment)
inhibition in clonogenic assays (KS Y-1 or KS-SLK cells): little or no inhibition | anti-KS activity of other peptides (KS Y-1 induced tumors): inactive

B1: pure β-chain: pure β-chain of hCG (protein, UniProt P0DN86 21-165, looked up)
Choriogonadotropin subunit …: SKEPLRPRCRPINATLAVEKEGCPVCITVNTTICAGYCPTMTRVLQGVLPALPQVVCNYRDVRFESIRLPGCPRGVNPVVSYAVALSCQCALCRRSTTDCGGPKDHPLTCDDPRFQDSSSSKAPPPSLPSPSRLPGPSDTPILPQ
anti-KS effect in clonogenic assays (KS Y-1 or KS-SLK cells; pure subunit chains): no anti-KS effect

B2: partially purified β-hCG: native partially purified whole β-chain of hCG (protein, UniProt P0DN86 21-165, looked up)
Choriogonadotropin subunit …: SKEPLRPRCRPINATLAVEKEGCPVCITVNTTICAGYCPTMTRVLQGVLPALPQVVCNYRDVRFESIRLPGCPRGVNPVVSYAVALSCQCALCRRSTTDCGGPKDHPLTCDDPRFQDSSSSKAPPPSLPSPSRLPGPSDTPILPQ
anti-KS effects (KS tumors and cells): have anti-KS effects | anti-KS effects (KS tumors and cells; listed as native partially purified whole β-chain): considerable anti-KS activity

B3: recombinant β-hCG (purified): purified recombinant β-hCG (protein, UniProt P0DN86 21-165, looked up)
Choriogonadotropin subunit …: SKEPLRPRCRPINATLAVEKEGCPVCITVNTTICAGYCPTMTRVLQGVLPALPQVVCNYRDVRFESIRLPGCPRGVNPVVSYAVALSCQCALCRRSTTDCGGPKDHPLTCDDPRFQDSSSSKAPPPSLPSPSRLPGPSDTPILPQ
anti-KS effects (KS tumors and cells): little or no effect
